Experimental data from PubChem BioAssay AID256 (DTP/NCI, 2004).
“And” between values parts separate entries of the source, which are not always exact repeats. Identical values can stand only once. Toxic doses and inconclusive results are not listed. How the source made its calls: active means survival T/C of 150% or more; inactive means T/C below 125% in these data.

System: CD2F1 mice, L1210 leukemia ip, survival T/C
Experiment: NCI In Vivo Anticancer Drug Screen. Data for tumor model L1210 Leukemia (intraperitoneal) in CD2F1 (CDF1) mice
Settings: higher = longer survival
Method in brief: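 Compound-dosed mice with transplantable tumor versus matched vehicle controls; endpoint ratio T/C reported.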

[1] = endpoint: mean survival time, dose: 100.0 mg/kg/injection, schedule: Q04DX003 (ip), vehicle: saline with Tween-80
[2] = endpoint: mean survival time, dose: 200.0 mg/kg/injection, schedule: Q04DX003 (ip), vehicle: saline with Tween-80
[3] = endpoint: mean survival time, dose: 100.0 mg/kg/injection, schedule: Q04DX003 (ip), vehicle: saline
[4] = endpoint: mean survival time, dose: 200.0 mg/kg/injection, schedule: Q04DX003 (ip), vehicle: saline
[5] = endpoint: mean survival time, dose: 100.0 mg/kg/injection, schedule: Q01DX009 (ip), vehicle: saline with Tween-80
[6] = endpoint: mean survival time, dose: 200.0 mg/kg/injection, schedule: Q01DX009 (ip), vehicle: saline with Tween-80
[7] = endpoint: mean survival time, dose: 400.0 mg/kg/injection, schedule: Q01DX009 (ip), vehicle: saline with Tween-80

Measured: T/C

NC1=C(Cl)C(=O)C(N)=C(Cl)C1=O
inactive: [1] 101 % of control | [2] 101 % of control

Cc1ccc2c(c1)C1(C)OC(C=CC1=O)O2 (stereo not given)
inactive: endpoint: median survival time, dose: 3.12 mg/kg/injection, schedule: Q01DX005 (ip), vehicle: Klucel (hydroxypropylcellulose) (HPC) 106 % of control | endpoint: median survival time, dose: 6.25 mg/kg/injection, schedule: Q01DX005 (ip), vehicle: Klucel (hydroxypropylcellulose) (HPC) 101 % of control | endpoint: median survival time, dose: 12.5 mg/kg/injection, schedule: Q01DX005 (ip), vehicle: Klucel (hydroxypropylcellulose) (HPC) 105 % of control | endpoint: median survival time, dose: 25.0 mg/kg/injection, schedule: Q01DX005 (ip), vehicle: Klucel (hydroxypropylcellulose) (HPC) 101 % of control and 105 % of control | endpoint: median survival time, dose: 50.0 mg/kg/injection, schedule: Q01DX005 (ip), vehicle: Klucel (hydroxypropylcellulose) (HPC) 103 % of control

NCCCc1ccccc1
inactive: endpoint: mean survival time, dose: 100.0 mg/kg/injection, schedule: Q01DX009 (ip), vehicle: saline 103 % of control | endpoint: mean survival time, dose: 200.0 mg/kg/injection, schedule: Q01DX009 (ip), vehicle: saline 90 % of control

CS(=O)(=O)OCC(=O)C(=O)COS(C)(=O)=O
inactive: endpoint: mean survival time, dose: 25.0 mg/kg/injection, schedule: Q01DX001 (ip), vehicle: saline 91 % of control | endpoint: mean survival time, dose: 50.0 mg/kg/injection, schedule: Q01DX001 (ip), vehicle: saline 94 % of control | endpoint: mean survival time, dose: 100.0 mg/kg/injection, schedule: Q01DX001 (ip), vehicle: saline 96 % of control and 103 % of control

CC(=O)OCC1OC(OC(C)=O)C([NH-])C(OC(C)=O)C1OC(C)=O.CC(=O)OCC1OC(OC(C)=O)C([NH-])C(OC(C)=O)C1OC(C)=O.[Cl][Pt+2][Cl] (stereo not given)
inactive: endpoint: mean survival time, dose: 12.5 mg/kg/injection, schedule: Q04DX003 (ip), vehicle: saline 98 % of control | endpoint: mean survival time, dose: 25.0 mg/kg/injection, schedule: Q04DX003 (ip), vehicle: saline 93 % of control | endpoint: mean survival time, dose: 50.0 mg/kg/injection, schedule: Q04DX003 (ip), vehicle: saline 95 % of control | [3] 90 % of control | [4] 95 % of control

CCCCOC(=O)CCC(NC(=O)c1ccc(N(C)Cc2cnc3nc(N)nc(N)c3n2)cc1)C(=O)OCCCC (stereo not given)
inactive: endpoint: mean survival time, dose: 0.09 mg/kg/injection, schedule: Q01DX009 (ip), vehicle: distilled water + Tween-80 108 % of control | endpoint: mean survival time, dose: 0.19 mg/kg/injection, schedule: Q01DX009 (ip), vehicle: distilled water + Tween-80 113 % of control and 91 % of control | endpoint: mean survival time, dose: 0.75 mg/kg/injection, schedule: Q01DX009 (ip), vehicle: distilled water + Tween-80 108 % of control | endpoint: mean survival time, dose: 1.5 mg/kg/injection, schedule: Q01DX009 (ip), vehicle: distilled water + Tween-80 89 % of control

C[C@]12CC[C@@H]3c4ccc(OC(=O)Cc5ccc(N(CCCl)CCCl)cc5)cc4CC[C@H]3[C@@H]1CC[C@@H]2OC(=O)Cc1ccc(N(CCCl)CCCl)cc1
inactive: endpoint: median survival time, dose: 25.0 mg/kg/injection, schedule: Q01DX009 (ip), vehicle: Klucel (hydroxypropylcellulose) (HPC) 89 % of control | endpoint: median survival time, dose: 50.0 mg/kg/injection, schedule: Q01DX009 (ip), vehicle: Klucel (hydroxypropylcellulose) (HPC) 92 % of control | endpoint: median survival time, dose: 100.0 mg/kg/injection, schedule: Q01DX009 (ip), vehicle: Klucel (hydroxypropylcellulose) (HPC) 94 % of control | endpoint: median survival time, dose: 200.0 mg/kg/injection, schedule: Q01DX009 (ip), vehicle: Klucel (hydroxypropylcellulose) (HPC) 92 % of control | endpoint: median survival time, dose: 400.0 mg/kg/injection, schedule: Q01DX009 (ip), vehicle: Klucel (hydroxypropylcellulose) (HPC) 101 % of control

Cc1nc(N)nc2c1CCC(O)S2 (stereo not given)
inactive: endpoint: mean survival time, dose: 25.0 mg/kg/injection, schedule: Q01DX001 (ip), vehicle: Klucel (hydroxypropylcellulose) (HPC) 96 % of control | endpoint: mean survival time, dose: 50.0 mg/kg/injection, schedule: Q01DX001 (ip), vehicle: Klucel (hydroxypropylcellulose) (HPC) 96 % of control | endpoint: mean survival time, dose: 100.0 mg/kg/injection, schedule: Q01DX001 (ip), vehicle: Klucel (hydroxypropylcellulose) (HPC) 96 % of control

COC(=O)CC1(O)C=CC(=O)C=C1
inactive: endpoint: mean survival time, dose: 0.75 mg/kg/injection, schedule: Q01DX009 (ip), vehicle: Klucel (hydroxypropylcellulose) (HPC) 104 % of control | endpoint: mean survival time, dose: 1.5 mg/kg/injection, schedule: Q01DX009 (ip), vehicle: Klucel (hydroxypropylcellulose) (HPC) 98 % of control | endpoint: mean survival time, dose: 3.0 mg/kg/injection, schedule: Q01DX009 (ip), vehicle: Klucel (hydroxypropylcellulose) (HPC) 95 % of control | endpoint: mean survival time, dose: 6.0 mg/kg/injection, schedule: Q01DX009 (ip), vehicle: Klucel (hydroxypropylcellulose) (HPC) 92 % of control | endpoint: mean survival time, dose: 12.0 mg/kg/injection, schedule: Q01DX009 (ip), vehicle: Klucel (hydroxypropylcellulose) (HPC) 95 % of control

CC(C)(C)[CH2][Sn]([Cl])([CH2]C(C)(C)C)[CH2]C(C)(C)C
inactive: endpoint: mean survival time, dose: 3.13 mg/kg/injection, schedule: Q04DX002 (ip), vehicle: saline with Tween-80 97 % of control | endpoint: mean survival time, dose: 6.25 mg/kg/injection, schedule: Q04DX002 (ip), vehicle: saline with Tween-80 101 % of control | endpoint: mean survival time, dose: 12.5 mg/kg/injection, schedule: Q04DX002 (ip), vehicle: saline with Tween-80 103 % of control

[Cl-].[NH-]CCN(CC[NH-])CCN.[O-][Cl+3]([O-])([O-])O.[O-][Cl+3]([O-])([O-])O.[Pt+2]
inactive: endpoint: mean survival time, dose: 12.5 mg/kg/injection, schedule: Q04DX003 (ip), vehicle: saline with Tween-80 97 % of control

NCC1CCNCC1
inactive: endpoint: mean survival time, dose: 25.0 mg/kg/injection, schedule: Q04DX002 (ip), vehicle: saline 94 % of control | endpoint: mean survival time, dose: 50.0 mg/kg/injection, schedule: Q04DX002 (ip), vehicle: saline 97 % of control | endpoint: mean survival time, dose: 100.0 mg/kg/injection, schedule: Q04DX002 (ip), vehicle: saline 91 % of control | endpoint: mean survival time, dose: 200.0 mg/kg/injection, schedule: Q04DX002 (ip), vehicle: saline 102 % of control

CCCCCCCCCCCC(=O)c1ccccc1
inactive: [5] 102 % of control | endpoint: mean survival time, dose: 100.0 mg/kg/injection, schedule: Q04DX003 (ip), vehicle: other 95 % of control | [6] 102 % of control | endpoint: mean survival time, dose: 200.0 mg/kg/injection, schedule: Q04DX003 (ip), vehicle: other 97 % of control | [7] 98 % of control | endpoint: mean survival time, dose: 400.0 mg/kg/injection, schedule: Q04DX003 (ip), vehicle: other 92 % of control

CC(=O)Nc1ccc2c(c1)Cc1ccccc1-2
inactive: [5] 101 % of control | [1] 87 % of control | [6] 95 % of control | [2] 101 % of control | [7] 101 % of control | endpoint: mean survival time, dose: 400.0 mg/kg/injection, schedule: Q04DX003 (ip), vehicle: saline with Tween-80 90 % of control

C[Si](C)C(Cl)Cl
inactive: endpoint: mean survival time, dose: 75.0 mg/kg/injection, schedule: Q01DX009 (ip), vehicle: saline with Tween-80 96 % of control | endpoint: mean survival time, dose: 150.0 mg/kg/injection, schedule: Q01DX009 (ip), vehicle: saline with Tween-80 98 % of control | endpoint: mean survival time, dose: 300.0 mg/kg/injection, schedule: Q01DX009 (ip), vehicle: saline with Tween-80 102 % of control

[Cl][Co]([Cl])[Cl].[NH-]CCCN.[NH-]CCC[NH-]
inactive: endpoint: mean survival time, dose: 100.0 mg/kg/injection, schedule: Q01DX009 (ip), vehicle: Klucel (hydroxypropylcellulose) (HPC) 113 % of control | [3] 101 % of control | endpoint: mean survival time, dose: 200.0 mg/kg/injection, schedule: Q01DX009 (ip), vehicle: Klucel (hydroxypropylcellulose) (HPC) 113 % of control | [4] 104 % of control | endpoint: mean survival time, dose: 400.0 mg/kg/injection, schedule: Q01DX009 (ip), vehicle: Klucel (hydroxypropylcellulose) (HPC) 104 % of control | endpoint: mean survival time, dose: 400.0 mg/kg/injection, schedule: Q04DX003 (ip), vehicle: saline 104 % of control

N#Cc1cn(C2OC(CO)C(O)C2O)c2ncnc(N)c12 (stereo not given)
inactive: endpoint: mean survival time, dose: 0.06 mg/kg/injection, schedule: Q01DX009 (ip), vehicle: saline 106 % of control | endpoint: mean survival time, dose: 0.13 mg/kg/injection, schedule: Q01DX009 (ip), vehicle: saline 110 % of control | endpoint: mean survival time, dose: 0.5 mg/kg/injection, schedule: Q01DX009 (ip), vehicle: saline 111 % of control | endpoint: mean survival time, dose: 1.0 mg/kg/injection, schedule: Q01DX009 (ip), vehicle: saline 95 % of control | endpoint: median survival time, dose: 0.1 mg/kg/injection, schedule: Q06HX024 (ip), vehicle: saline 100 % of control | endpoint: median survival time, dose: 0.2 mg/kg/injection, schedule: Q06HX024 (ip), vehicle: saline 102 % of control | endpoint: median survival time, dose: 0.4 mg/kg/injection, schedule: Q06HX024 (ip), vehicle: saline 109 % of control
